We go through two compounds from patent US20080299270A1, “Fat Taste Receptors and Their Methods of Use” (NESTEC S.A., priority 2005, published 2008).

This assay has as its system GPR40. Kind of assay: two-bottle preference test of fat emulsions, GPR40 knockout vs normal mice. The assay is classed as in vivo, mouse. The following applies: GPR40 knockout mice compared to control mice; fat emulsion vs vehicle only, two drinking bottles. An excerpt: A preference ratio of 0.5 indicates indifference, above 0.5 indicates preference and below 0.5 indicates avoidance. Both preference and intake of fat are diminished in the GPR40 KO mice compared to control mice. The stars show the concentrations of lipids at which the differences of intake or preference between knockout and control mice are statistically significant. […] The fat emulsions contained corn oil, Intralipid, lauric acid or oleic acid. When compared with normal mice, the knockout animals drank less fat. […] Because mice can still detect fat in the absence of GPR40, another receptor, probably GPR120, must also play a role in fat taste signaling.

In the case of `CCCCCCCCCCCC(=O)O` [lauric acid], the “intake of fat emulsion” value was “diminished” and the “preference for fat emulsion” value is given as “diminished”.
On to `CCCCCCCC/C=C\CCCCCCCC(=O)O` [oleic acid], for which the “intake of fat emulsion” value was “diminished” and the “preference for fat emulsion” value is “diminished”.
